Entries after “also recorded” stand apart in the source; their conditions may differ.
What was measured:
transgenic GFAP-GFP mice [1] = assay: In vivo retinal imaging (scanning laser ophthalmoscope) of GFP fluorescence in the optic disc of 2′-CH3-MPTP-treated mice
Protocol: (§1) The generation and genotyping of the transgenic GFAP (glial fibrillary acidic protein)-GFP (green fluorescent protein) mice were performed as previously described (Zhuo et al., 1997, See PCT Application No. PCT/SG2008/000159). Adult mice (8-10 weeks old) in the Friend virus B-Type (FVB/N) background were used in this study. Animal husbandry was provided by the Biological Resource Center (BRC) of Biopolis, Singapore. The experimental protocol for this study was approved by the Institutional Animal Care and Use Committee at BRC.
The synthesis of DBZIM has been described. (See PCT Application No. SG2009/000037, Zhang et al., 2007). The structure of DBZIM is illustrated in FIG. 1. […] The dosing regime is illustrated in FIG. 2. Mice in the DBZIM/neurotoxicant-treated group received an intraperitoneal (ip) injection of DBZIM (25 mg/kg in saline) 24 h before and after administering 4 ip injections of 2′-CH3-MPTP (15 mg/kg in saline; once every 2 h). Mice in the neurotoxicant-treated group were injected with 2′-CH3-MPTP only (4×15 mg/kg in saline; ip; once every 2 h). For each mouse in the DBZIM/neurotoxicant-treated group (n=5) and neurotoxicant-treated group (n=5), saline was used as a vehicle for the control group (n=6). Retinal imaging was performed before and after treatment.
Mice were anesthetized by ip injections with 0.15 ml/10 g body weight of Avertin (1.5% 2,2,2-tribromoethanol; T48402) purchased from Sigma-Aldrich (St. Louis, Mo., USA). Their pupils were dilated with a drop of 0.5% Cyclogyl® sterile ophthalmic solution (cyclopentolate hydrochloride, Alcon®, Puurs, Belgium). Custom-made polymethylmethacrylate (PMMA) hard contact lenses (Cantor & Nissel, Northamptonshire, UK) were used to avoid dehydration of the cornea. Careful examination by an eye specialist before scanning laser ophthalmoscope (SLO) imaging ruled out the presence of any corneal or lens opacity.
The second version of Heidelberg Retina Angiograph (HRA II) SLO (Heidelberg Engineering, Dossenheim, Germany) was modified for use on mice. SLO is an imaging technique based on the scanning of the fundus with a laser beam from a point source; the reflected light is detected by a photomultiplier. The incident and reflected light beams follow a co-axial path. Therefore, more light can pass through small eyes with SLO than with conventional fundus cameras. […]
Unlike magnetic resonance images (MRI) and in vitro fluorescent-labeled cell images, the in vivo fluorescence images of transgenic GFAP-GFP expression in the mouse retina have very low signal-to-noise ratio (SNR), which makes the quantitative analysis of the transgene expression difficult. […]

transgenic GFAP-GFP mice [2] = assay: Brain cryosection immunohistochemistry (GFP/TH) of striatum and SNpc after 2′-CH3-MPTP; format: in vivo; details: DBZIM 25 mg/kg ip plus 2′-CH3-MPTP
Protocol: as §1
(§2) The synthesis of DBZIM has been described. (See PCT Application No. SG2009/000037, Zhang et al., 2007). The structure of DBZIM is illustrated in FIG. 1. […] The dosing regime is illustrated in FIG. 2. Mice in the DBZIM/neurotoxicant-treated group received an intraperitoneal (ip) injection of DBZIM (25 mg/kg in saline) 24 h before and after administering 4 ip injections of 2′-CH3-MPTP (15 mg/kg in saline; once every 2 h). […]
(§3) After perfusion with 1× PBS, followed by 4% fresh paraformaldehyde (in 1× PBS, pH 7.4), the mouse brains were harvested and the eyes enucleated. […] The retinas, free of the choroid and sclera tissues, were whole-mounted on a glass slide with Vectorshield mounting medium for fluorescence (Vector Laboratories, Inc., Burlingame, Calif., USA; H1000). […]

transgenic GFAP-GFP mice [3] = assay: Retinal whole-mount and cross-section immunohistochemistry (GFP/GFAP) for 2′-CH3-MPTP-induced gliosis; format: in vivo; details: DBZIM 25 mg/kg ip plus 2′-CH3-MPTP
Protocol: as §1, §2, §3

Q: Which “fluorescence intensity (FI) in the optic disc over saline control, in words” value (transgenic GFAP-GFP mice [1]; 2′-CH3-MPTP alone, 4 x 15 mg/kg ip, P<0.05, FIG. 4) does the source give for `Cc1ccccc1C1=CCN(C)CC1` [2′-CH3-MPTP, methyl-4(2′-methylphenyl)-1,2,3,6-tetrahydropyridine, reference compound] here?
A: significant increase

Q: What about the “increase in GFP fluorescence of the optic disc” value (transgenic GFAP-GFP mice [1]; neurotoxicant alone, 4 x 15 mg/kg ip once every 2 h, versus saline control, FIG. 4) of the same compound?
A: 36%

Q: Which results are given for `[Br-].c1ccc(Cn2cc[n+](Cc3ccccc3)c2)cc1` [DBZIM, 1,3-bisbenzylimidazolium bromide]?
A: DA neuron depletion in the SNpc (TH immunoreactivity) (transgenic GFAP-GFP mice [2]; SNpc, FIG. 8): A significant portion of the DA neurons is protected; striatal gliosis (GFP signal) (transgenic GFAP-GFP mice [2]; striatum, FIG. 7): cut down the gliosis in the striatum to a basal level; also recorded: significantly attenuates the neurotoxicity; change in GFP fluorescence (fluorescence intensity) of the optic disc versus saline control (transgenic GFAP-GFP mice [1]; DBZIM 25 mg/kg ip 24 h before and after 4 x 15 mg/kg ip 2′-CH3-MPTP, quantified by algorithm, FIG. 4, day 4): no significant change; also recorded: prevented the 2′-CH3-MPTP-induced retinal toxicity; apparent retinal neurotoxicity in composite retinal images (transgenic GFAP-GFP mice [1]; DBZIM 25 mg/kg ip plus 2′-CH3-MPTP, FIG. 3): no apparent neurotoxicity; gliosis in retinal whole-mounts (GFP green and GFAP red fluorescence, nerve fiber layer) (transgenic GFAP-GFP mice [3]; FIG. 5): attenuated both green and red fluorescence to the basal levels; also recorded: significantly attenuates the gliosis; gliosis in retinal astrocytes and Müller cells (retinal cross-sections) (transgenic GFAP-GFP mice [3]; FIG. 6): reduced the neurotoxicant-induced gliosis to close to the basal level; also recorded: significantly attenuated
